Measurements reported in ChEMBL document CHEMBL1201861, “Genomics of Drug Sensitity in Cancer screening data, Wellcome Trust Sanger Institute”.

What was measured:
Test in all cases: cells
NB10 = format: functional, cell-based, Homo sapiens; conditions: Homo sapiens, NB10;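 note: growth inhibition of NB10 cells, read out by a cell viability assay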
Description: SANGER: Inhibition of human NB10 cell growth in a cell viability assay.

ATN-1 = format: functional, cell-based, Homo sapiens; conditions: Homo sapiens, ATN-1;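 note: growth inhibition of human ATN-1 cells, read out with a cell viability assay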
Description: SANGER: Inhibition of human ATN-1 cell growth in a cell viability assay.

RPMI-8226 = format: functional, cell-based, Homo sapiens; conditions: Homo sapiens, RPMI-8226
Description: SANGER: Inhibition of human RPMI-8226 cell growth in a cell viability assay.

ONS-76 = format: functional, cell-based, Homo sapiens; conditions: Homo sapiens, ONS-76;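 note: growth inhibition of human ONS-76 cells, read out with a cell viability assay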
Description: SANGER: Inhibition of human ONS-76 cell growth in a cell viability assay.

KM-H2 = format: functional, cell-based, Homo sapiens; conditions: Homo sapiens, KM-H2;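 note: growth inhibition of KM-H2 cells, read out by a cell viability assay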
Description: SANGER: Inhibition of human KM-H2 cell growth in a cell viability assay.

KS-1 = format: functional, cell-based; conditions: Homo sapiens;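 note: growth inhibition of KS-1 cells, read out with a cell viability assay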
Description: SANGER: Inhibition of human KS-1 cell growth in a cell viability assay.

SCH = format: functional, cell-based, Homo sapiens; conditions: Homo sapiens, SCH;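 note: growth inhibition of human SCH cells, read out in a cell viability assay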
Description: SANGER: Inhibition of human SCH cell growth in a cell viability assay.

CTB-1 = format: functional, cell-based, Homo sapiens; conditions: Homo sapiens, CTB-1
Description: SANGER: Inhibition of human CTB-1 cell growth in a cell viability assay.

EW-16 = format: functional, cell-based, Homo sapiens; conditions: Homo sapiens, EW-16;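 note: growth inhibition of human EW-16 cells, read out as cell viability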
Description: SANGER: Inhibition of human EW-16 cell growth in a cell viability assay.

GI-ME-N = format: functional, cell-based, Homo sapiens; conditions: Homo sapiens, GI-ME-N;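 note: growth inhibition of human GI-ME-N cells, read out with a cell viability assay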
Description: SANGER: Inhibition of human GI-ME-N cell growth in a cell viability assay.

NCI-H1838 = format: functional, cell-based, Homo sapiens; conditions: Homo sapiens, NCI-H1838;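 note: growth inhibition of NCI-H1838 cells, determined with a cell viability readout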
Description: SANGER: Inhibition of human NCI-H1838 cell growth in a cell viability assay.

NCI-H1092 = format: functional, cell-based, Homo sapiens; conditions: Homo sapiens, NCI-H1092;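 note: cell growth inhibition measured with a cell viability assay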
Description: SANGER: Inhibition of human NCI-H1092 cell growth in a cell viability assay.

MOLT-16 = format: functional, cell-based, Homo sapiens; conditions: Homo sapiens, MOLT-16;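 note: growth inhibition of human MOLT-16 cells, read out with a cell viability assay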
Description: SANGER: Inhibition of human MOLT-16 cell growth in a cell viability assay.

COLO-800 = format: functional, cell-based, Homo sapiens; conditions: Homo sapiens, COLO-800;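 note: growth inhibition of COLO-800 cells, read out with a cell viability assay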
Description: SANGER: Inhibition of human COLO-800 cell growth in a cell viability assay.

KALS-1 = format: functional, cell-based, Homo sapiens; conditions: Homo sapiens, KALS-1; read-out: IC50;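 note: growth inhibition of KALS-1 cells, determined with a cell viability assay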
Description: SANGER: Inhibition of human KALS-1 cell growth in a cell viability assay.

GOTO = format: functional, cell-based, Homo sapiens; conditions: Homo sapiens, GOTO;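 note: growth inhibition of GOTO cells, read out by a cell viability assay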
Description: SANGER: Inhibition of human GOTO cell growth in a cell viability assay.

IST-SL1 = format: functional, cell-based, Homo sapiens; conditions: Homo sapiens, IST-SL1;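 note: growth inhibition of human IST-SL1 cells, read out with a cell viability assay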
Description: SANGER: Inhibition of human IST-SL1 cell growth in a cell viability assay.

SBC-1 = format: functional, cell-based, Homo sapiens; conditions: Homo sapiens, SBC-1;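 note: cell viability assay measuring growth inhibition of the SBC-1 cell line, IC50 being the concentration that halves growth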
Description: SANGER: Inhibition of human SBC-1 cell growth in a cell viability assay.

NCI-H69 = format: functional, cell-based, Homo sapiens; conditions: Homo sapiens, NCI-H69;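 note: growth inhibition of the cell line, read out with a cell viability assay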
Description: SANGER: Inhibition of human NCI-H69 cell growth in a cell viability assay.

NMC-G1 = format: functional, cell-based, Homo sapiens; conditions: Homo sapiens, NMC-G1;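 note: growth inhibition of the NMC-G1 cell line, measured with a cell viability read-out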
Description: SANGER: Inhibition of human NMC-G1 cell growth in a cell viability assay.

LNCaP-Clone-FGC = format: functional, cell-based, Homo sapiens; conditions: Homo sapiens, LNCaP-Clone-FGC
Description: SANGER: Inhibition of human LNCaP-Clone-FGC cell growth in a cell viability assay.

TE-8 = format: functional, cell-based, Homo sapiens; conditions: Homo sapiens, TE-8;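 note: growth inhibition of TE-8 cells, measured with a cell viability readout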
Description: SANGER: Inhibition of human TE-8 cell growth in a cell viability assay.

LC-2-ad = format: functional, cell-based, Homo sapiens; conditions: Homo sapiens, LC-2-ad;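 note: growth inhibition of human LC-2-ad cells, read out with a cell viability assay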
Description: SANGER: Inhibition of human LC-2-ad cell growth in a cell viability assay.

RS4-11 = format: functional, cell-based, Homo sapiens; conditions: Homo sapiens, RS4-11;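 note: growth inhibition of RS4-11 cells, read out by a cell viability assay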
Description: SANGER: Inhibition of human RS4-11 cell growth in a cell viability assay.

RCC10RGB = format: functional, cell-based, Homo sapiens; conditions: Homo sapiens, RCC10RGB;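 note: growth inhibition of human RCC10RGB cells, read out by a cell viability assay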
Description: SANGER: Inhibition of human RCC10RGB cell growth in a cell viability assay.

NCI-H1395 = format: functional, cell-based, Homo sapiens; conditions: Homo sapiens, NCI-H1395;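 note: cell viability assay read-out quantifying reduced proliferation of human NCI-H1395 cells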
Description: SANGER: Inhibition of human NCI-H1395 cell growth in a cell viability assay.

LAN-6 = format: functional, cell-based, Homo sapiens; conditions: Homo sapiens, LAN-6;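 note: growth inhibition of LAN-6 cells, determined with a cell viability assay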
Description: SANGER: Inhibition of human LAN-6 cell growth in a cell viability assay.

no-11 = format: functional, cell-based, Homo sapiens; conditions: Homo sapiens;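 note: growth inhibition of human NO-11 cells, read out with a cell viability assay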
Description: SANGER: Inhibition of human no-11 cell growth in a cell viability assay.

MN-60 = format: functional, cell-based, Homo sapiens; conditions: Homo sapiens, MN-60;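 note: growth inhibition of the MN-60 cell line, determined with a cell viability assay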
Description: SANGER: Inhibition of human MN-60 cell growth in a cell viability assay.

DB = format: functional, cell-based, Homo sapiens; conditions: Homo sapiens, DB
Description: SANGER: Inhibition of human DB cell growth in a cell viability assay.

ALL-PO = format: functional, cell-based, Homo sapiens; conditions: Homo sapiens, ALL-PO;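 note: growth inhibition of ALL-PO cells, read out by a cell viability assay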
Description: SANGER: Inhibition of human ALL-PO cell growth in a cell viability assay.

NCI-H1648 = format: functional, cell-based, Homo sapiens; conditions: Homo sapiens, NCI-H1648;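 note: cell viability assay measuring inhibition of NCI-H1648 cell growth, from the Sanger screening data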
Description: SANGER: Inhibition of human NCI-H1648 cell growth in a cell viability assay.

COLO-829 = format: functional, cell-based, Homo sapiens; conditions: Homo sapiens, COLO-829
Description: SANGER: Inhibition of human COLO-829 cell growth in a cell viability assay.

HD-MY-Z = format: functional, cell-based, Homo sapiens; conditions: Homo sapiens, HD-MY-Z;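 note: growth inhibition of HD-MY-Z cells, read out with a cell viability assay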
Description: SANGER: Inhibition of human HD-MY-Z cell growth in a cell viability assay.

NCI-H23 = format: functional, cell-based, Homo sapiens; conditions: Homo sapiens, NCI-H23;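 note: cell viability assay measuring growth inhibition of NCI-H23 cells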
Description: SANGER: Inhibition of human NCI-H23 cell growth in a cell viability assay.

HAL-01 = format: functional, cell-based, Homo sapiens; conditions: Homo sapiens, HAL-01;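 note: growth inhibition of human HAL-01 cells, read out with a cell viability assay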
Description: SANGER: Inhibition of human HAL-01 cell growth in a cell viability assay.

NCI-H1581 = format: functional, cell-based, Homo sapiens; conditions: Homo sapiens, NCI-H1581;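 note: cell growth inhibition read out by a viability assay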
Description: SANGER: Inhibition of human NCI-H1581 cell growth in a cell viability assay.

SK-MEL-1 = format: functional, cell-based, Homo sapiens; conditions: Homo sapiens, SK-MEL-1;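 note: growth inhibition of human SK-MEL-1 cells, read out by a cell viability assay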
Description: SANGER: Inhibition of human SK-MEL-1 cell growth in a cell viability assay.

Lu-65 = format: functional, cell-based, Homo sapiens; conditions: Homo sapiens, Lu-65;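 note: growth inhibition of Lu-65 cancer cells, read out by a cell viability assay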
Description: SANGER: Inhibition of human LU-65 cell growth in a cell viability assay.

LXF-289 cell line = format: functional, cell-based; conditions: Homo sapiens
Description: SANGER: Inhibition of human LXF-289 cell growth in a cell viability assay.

NKM-1 = format: functional, cell-based, Homo sapiens; conditions: Homo sapiens, NKM-1;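 note: growth inhibition of NKM-1 cells, read out with a cell viability assay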
Description: SANGER: Inhibition of human NKM-1 cell growth in a cell viability assay.

KURAMOCHI = format: functional, cell-based, Homo sapiens; conditions: Homo sapiens, KURAMOCHI;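 note: growth inhibition of KURAMOCHI cells, read out with a cell viability assay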
Description: SANGER: Inhibition of human KURAMOCHI cell growth in a cell viability assay.

SK-UT-1 = format: functional, cell-based, Homo sapiens; conditions: Homo sapiens, SK-UT-1;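 note: growth inhibition of SK-UT-1 cells, measured by a cell viability assay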
Description: SANGER: Inhibition of human SK-UT-1 cell growth in a cell viability assay.

NB5 = format: functional, cell-based, Homo sapiens; conditions: Homo sapiens, NB5;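 note: growth inhibition of NB5 cells, read out as cell viability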
Description: SANGER: Inhibition of human NB5 cell growth in a cell viability assay.

C8166 = format: functional, cell-based, Homo sapiens; conditions: Homo sapiens, C8166;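 note: growth inhibition of human C8166 cells measured by a cell viability assay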
Description: SANGER: Inhibition of human C8166 cell growth in a cell viability assay.

HEL = format: functional, cell-based, Homo sapiens; conditions: Homo sapiens, HEL;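 note: growth inhibition of HEL cells, read out with a cell viability assay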
Description: SANGER: Inhibition of human HEL cell growth in a cell viability assay.

OVCAR-4 = format: functional, cell-based, Homo sapiens; conditions: Homo sapiens, OVCAR-4;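 note: growth inhibition of human OVCAR-4 cells, measured with a cell viability assay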
Description: SANGER: Inhibition of human OVCAR-4 cell growth in a cell viability assay.

GT3TKB = format: functional, cell-based, Homo sapiens; conditions: Homo sapiens, GT3TKB;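 note: growth inhibition of the cell line, read out with a cell viability assay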
Description: SANGER: Inhibition of human GT3TKB cell growth in a cell viability assay.

CC1=C(/C=C/C(C)=C/C=C/C(C)=C/C(=O)O)C(C)(C)CCC1 [TRETINOIN]
IC50 (NB10): > 10000 nM | IC50 (ATN-1): 30.3 nM | IC50 (RPMI-8226): 993 nM | IC50 (ONS-76): > 10000 nM | IC50 (KM-H2): > 10000 nM | IC50 (KS-1): > 10000 nM | IC50 (SCH): > 10000 nM | IC50 (CTB-1): 1600 nM | IC50 (EW-16): > 10000 nM | IC50 (GI-ME-N): > 10000 nM | IC50 (NCI-H1838): > 10000 nM | IC50 (NCI-H1092): > 10000 nM | IC50 (MOLT-16): > 10000 nM | IC50 (COLO-800): > 10000 nM | IC50 (KALS-1): > 10000 nM | IC50 (GOTO): > 10000 nM | IC50 (IST-SL1): > 10000 nM | IC50 (SBC-1): > 10000 nM | IC50 (NCI-H69): 2270 nM | IC50 (NMC-G1): > 10000 nM | IC50 (LNCaP-Clone-FGC): > 10000 nM | IC50 (TE-8): > 10000 nM | IC50 (LC-2-ad): > 10000 nM | IC50 (RS4-11): 4450 nM | IC50 (RCC10RGB): > 10000 nM | IC50 (NCI-H1395): > 10000 nM | IC50 (LAN-6): > 10000 nM | IC50 (no-11): > 10000 nM | IC50 (MN-60): > 10000 nM | IC50 (DB): 4770 nM | IC50 (ALL-PO): 6870 nM | IC50 (NCI-H1648): 9740 nM | IC50 (COLO-829): > 10000 nM | IC50 (HD-MY-Z): > 10000 nM | IC50 (NCI-H23): > 10000 nM | IC50 (HAL-01): > 10000 nM | IC50 (NCI-H1581): > 10000 nM | IC50 (SK-MEL-1): > 10000 nM | IC50 (Lu-65): > 10000 nM | IC50 (LXF-289 cell line): > 10000 nM | IC50 (NKM-1): 8410 nM | IC50 (KURAMOCHI): > 10000 nM | IC50 (SK-UT-1): > 10000 nM | IC50 (NB5): > 10000 nM | IC50 (C8166): > 10000 nM | IC50 (HEL): > 10000 nM | IC50 (OVCAR-4): > 10000 nM | IC50 (GT3TKB): > 10000 nM

NC(=O)c1ccc(N(C(N)=O)c2c(F)cccc2F)nc1-c1ccc(F)cc1F [VX-702]
IC50 (NB10): > 2000 nM | IC50 (ATN-1): > 2000 nM | IC50 (RPMI-8226): > 2000 nM | IC50 (ONS-76): > 2000 nM | IC50 (KM-H2): > 2000 nM | IC50 (KS-1): > 2000 nM | IC50 (SCH): > 2000 nM | IC50 (CTB-1): > 2000 nM | IC50 (EW-16): > 2000 nM | IC50 (GI-ME-N): > 2000 nM | IC50 (NCI-H1838): > 2000 nM | IC50 (NCI-H1092): > 2000 nM | IC50 (MOLT-16): > 2000 nM | IC50 (COLO-800): > 2000 nM | IC50 (KALS-1): > 2000 nM | IC50 (GOTO): > 2000 nM | IC50 (IST-SL1): > 2000 nM | IC50 (SBC-1): 236 nM | IC50 (NCI-H69): 99.4 nM | IC50 (NMC-G1): > 2000 nM | IC50 (LNCaP-Clone-FGC): > 2000 nM | IC50 (TE-8): > 2000 nM | IC50 (LC-2-ad): > 2000 nM | IC50 (RS4-11): > 2000 nM | IC50 (RCC10RGB): > 2000 nM | IC50 (NCI-H1395): > 2000 nM | IC50 (LAN-6): > 2000 nM | IC50 (no-11): > 2000 nM | IC50 (MN-60): > 2000 nM | IC50 (DB): > 2000 nM | IC50 (ALL-PO): > 2000 nM | IC50 (NCI-H1648): > 2000 nM | IC50 (COLO-829): > 2000 nM | IC50 (HD-MY-Z): > 2000 nM | IC50 (NCI-H23): > 2000 nM | IC50 (HAL-01): > 2000 nM | IC50 (NCI-H1581): > 2000 nM | IC50 (SK-MEL-1): > 2000 nM | IC50 (Lu-65): > 2000 nM | IC50 (LXF-289 cell line): > 2000 nM | IC50 (NKM-1): > 2000 nM | IC50 (KURAMOCHI): > 2000 nM | IC50 (SK-UT-1): > 2000 nM | IC50 (NB5): > 2000 nM | IC50 (C8166): > 2000 nM | IC50 (HEL): > 2000 nM | IC50 (OVCAR-4): > 2000 nM | IC50 (GT3TKB): > 2000 nM

NC(=O)Nc1cc(-c2cccc(F)c2)sc1C(=O)N[C@H]1CCCNC1 [AZD-7762]
IC50 (NB10): 591 nM | IC50 (ATN-1): 34.2 nM | IC50 (RPMI-8226): 175 nM | IC50 (ONS-76): 62 nM | IC50 (KM-H2): 1220 nM | IC50 (KS-1): 466 nM | IC50 (SCH): 1330 nM | IC50 (CTB-1): 133 nM | IC50 (EW-16): 538 nM | IC50 (GI-ME-N): 455 nM | IC50 (NCI-H1838): > 2000 nM | IC50 (NCI-H1092): > 2000 nM | IC50 (MOLT-16): 88.1 nM | IC50 (COLO-800): 603 nM | IC50 (KALS-1): 326 nM | IC50 (GOTO): 31.2 nM | IC50 (IST-SL1): 628 nM | IC50 (SBC-1): > 2000 nM | IC50 (NCI-H69): > 2000 nM | IC50 (NMC-G1): 986 nM | IC50 (LNCaP-Clone-FGC): 1440 nM | IC50 (TE-8): 1120 nM | IC50 (LC-2-ad): 565 nM | IC50 (RS4-11): 203 nM | IC50 (RCC10RGB): > 2000 nM | IC50 (NCI-H1395): 198 nM | IC50 (LAN-6): 1080 nM | IC50 (no-11): 1490 nM | IC50 (MN-60): 721 nM | IC50 (DB): 1700 nM | IC50 (ALL-PO): 242 nM | IC50 (NCI-H1648): > 2000 nM | IC50 (COLO-829): 298 nM | IC50 (HD-MY-Z): 62.5 nM | IC50 (NCI-H23): 248 nM | IC50 (HAL-01): 210 nM | IC50 (NCI-H1581): > 2000 nM | IC50 (SK-MEL-1): > 2000 nM | IC50 (Lu-65): > 2000 nM | IC50 (LXF-289 cell line): 676 nM | IC50 (NKM-1): < 7.81 nM | IC50 (KURAMOCHI): > 2000 nM | IC50 (SK-UT-1): 186 nM | IC50 (NB5): 797 nM | IC50 (C8166): 1910 nM | IC50 (HEL): 225 nM | IC50 (OVCAR-4): 320 nM | IC50 (GT3TKB): 1490 nM
